Measurements from US20120010206A1, “IMIDAZOLOPYRIDINE COMPOUNDS USEFUL FOR THE TREATMENT OF DEGENERATIVE AND INFLAMMATORY DISEASES” (priority 2006, published 2012).

What was measured:
TAK1-TAB1 fusion protein = target: T1, TAK1-TAB1 fusion protein (Homo sapiens, UniProt O43318); test: In vitro TAK1 kinase assay (33P-ATP, casein substrate); type: biochemical; conditions: semi-quantitative score, at least two independent experiments
T1 construct: purchased Upstate 14-600
T1 sequence (O43318 with tags, fused parts or gaps limits assumed): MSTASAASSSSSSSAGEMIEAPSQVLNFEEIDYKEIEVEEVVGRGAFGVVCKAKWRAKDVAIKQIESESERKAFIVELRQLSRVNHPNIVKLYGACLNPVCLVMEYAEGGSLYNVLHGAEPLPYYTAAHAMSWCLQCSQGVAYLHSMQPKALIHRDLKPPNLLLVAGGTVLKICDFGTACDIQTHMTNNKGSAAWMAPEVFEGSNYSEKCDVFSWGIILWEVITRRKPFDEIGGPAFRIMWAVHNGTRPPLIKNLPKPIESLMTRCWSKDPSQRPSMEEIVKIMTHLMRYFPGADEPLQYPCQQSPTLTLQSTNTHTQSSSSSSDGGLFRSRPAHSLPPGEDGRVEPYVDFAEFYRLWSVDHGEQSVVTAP
Experimental: For assessing TAK1 inhibition, active TAK1-TAB1 fusion protein was used from Upstate (Cat. No, 14-600). Kinase reactions are set up in 96-well polypropylene plates in 25 μL containing 0.5 mU TAK1-TAB1 fusion protein, […], 0.01 μCi/μL [^33P]-γ-ATP, 0.1 mg/mL casein substrate in 1× reaction buffer containing 10 mM MOPS pH 7.0, 1 mM EDTA.
Starting from the compound master stocks (all at 10 mM concentration in 100% DMSO) a 3-fold serial dilution is made in 96-well plates in 100% DMSO. Plates are further diluted […] in H2O containing 3.5% DMSO, to obtain an intermediate work stock with compounds at 5× the final assay concentration in 5% DMSO.
5 μL of the intermediate stock is transferred into V-bottom 96 well polypropylene plates and 11 μL of Enzyme mix is added. Enzyme mix is made by combining 5 μL 5× reaction buffer ([…] pH 7.0, 1 mM EDTA), 5 μL casein (Sigma) diluted in H2O to 0.5 mg/mL and 1 μL of TAK1-TAB1 fusion protein that was prediluted to 0.5 mU/μL in 1× enzyme dilution buffer (20 mM MOPS pH 7.0, 0.1 mM EDTA, 0.01% Brij-35, 5% glycerol, 1 mM DTT, 1 mg/ml BSA).
The reactions are started by the addition of 9 μL of mixture containing ATP (20.83 uM) and [^33P]-γ-ATP (0.028 μCi/μL).
The assay is stopped 90 minutes after incubation at 30° C. by the addition of 25 μL phosphoric acid (150 mM). The label incorporated into the casein substrate is separated from labeled unincorporated ATP by filtration onto 96-well filter plates using a harvester device. After 6 washes with 75 mM phosphoric acid, the bottom of the filter plates are sealed, and incorporated label is quantified after addition of 40 μL scintillation fluid using TopCount.
Based on these percent inhibition data obtained in at least two independent experiments for the compounds, compounds are ranked using semi-quantitative scores. Table A below lists a number of compounds which have been or can be prepared according to the synthetic methods described herein. Semi-quantitative score: • *>3001 nM • ** 1001-3000 nM • *** 101-1000 nM • ****<100 nM

[1] = system: MMP1 expression from activated SFs (RASF); test: MMP assay: MMP1 expression (ELISA) by TNF-α-triggered RASFs; type: cell-based; conditions: RASF triggered with TNFα, MMP1 ELISA after 48 hrs, semi-quantitative score
Experimental: A 384-well format ELISA for measurement of MMP1 is developed. Various primary antibodies are tested, as well as various ELISA protocols. The following protocol is developed and validated to measure MMP1 levels in SF supernatant in 384 well plates: white Lumitrac 600 384 well plates (Greiner) are coated with 2 μg/mL anti-MMP1 antibody MAB1346 (Chemicon). The antibody is diluted in buffer 40 (1.21 g Tris base (Sigma), 0.58 g NaCl (Calbiochem) and 5 mL 10% NaN3 (Sigma) in 1 L milliQ water and adjusted to pH 8.5). After overnight incubation at 4° C., plates are washed with PBS (80 g NaCl, 2 g KCl (Sigma), 11.5 g Na2HPO4.7H2O and 2 g KH2PO4 in 10 L milliQ; pH 7.4) and blocked with 100 μL/well Casein buffer (2% Casein (VWR International) in PBS). Next day, casein buffer is removed from ELISA plates and replaced by 50 μL/well EC buffer (4 g casein, 2.13 g Na2HPO4 (Sigma), 2 g bovine albumin (Sigma), 0.69 g NaH2PO4.H2O (Sigma), 0.5 g CHAPS (Roche), 23.3 g NaCl, 4 mL 0.5 M EDTA pH 8 (Invitrogen), 5 mL 10% NaN3 in 1 L milliQ and adjusted to pH 7.0). 0.25 mM DTT (Sigma) is added to the thawed sample plates. After removal of the EC buffer, 20 μL of sample is transferred to the ELISA plates. After overnight incubation at 4° C. plates are washed twice with PBS and once with PBST (PBS with 0.05% Tween-20 (Sigma)) and incubated with 35 μL/well biotinylated anti-MMP1 antibody solution (R&D). This secondary antibody is diluted in buffer C (0.82 g NaH2PO4.H2O, 4.82 g Na2HPO4, 46.6 g NaCl, 20 g bovine albumin and 4 ml, 0.5M EDTA pH 8 in 2 L milliQ and adjusted to pH 7.0) at a concentration of 5 μg/mL. After 2 h of incubation at RT, plates are washed as described above and incubated with 50 μL/well streptavidin-HRP conjugate (Biosource). Streptavidin-HRP conjugate is diluted in buffer C at a concentration of 0.25 μg/mL. After 45 min, plates are washed as described above and incubated for 5 min with 50 μL/well BM Chem ELISA Substrate (Roche). Readout is performed on the Luminoscan Ascent Luminometer (Labsystems) with an integration time of 200 msec or with an Envision reader (Perkin Elmer).
SFs were acquired at passage 1 from a commercial supplier (Cell applications, Inc.). SFs are cultured in DMEM supplemented with 10% heat-inactivated FBS, 1× penicillin/streptomycin (Invitrogen) at 37° C., 10% CO2 until passage 6. Aliquots of the cells are frozen and cryopreserved in liquid nitrogen. Starting from a cryopreserved aliquot, cells are further expanded by sub-culturing cells at 1/3 ratio every week. Cells between passage 10 and 12 are routinely used in compound testing according to the following protocol.
Starting from the compound master stocks (all at 10 mM concentration in 100% DMSO) a 3-fold serial dilution is made in 96-well plates in 100% DMSO. Then, plates are further diluted 45-fold in M199 medium supplemented with 1% heat-inactivated FBS to obtain a intermediate work stock.
At day 1, RASFs are seeded in 96 well plates (flat bottom, tissue culture treated, Greiner) at a density of 3000 cells/well in complete synovial growth medium (Cell Applications). Day 5, the medium is completely removed from the cells, and replaced by 81 μL of M199 medium supplemented with 1% heat-inactivated FBS followed by addition of 10 μL compound out of the intermediate work stock. After an incubation period of 90 minutes, which allows the compounds to equilibrate and enter the cells, cells are stimulated with either TNF-α or ‘complex trigger’. TNF-α trigger is added in a volume of […] to obtain final concentration of 10 ng/mL. For that, TNF-α stock (PeproTech) at 10 μg/mL was diluted to 100 ng/mL TNF-α in M199 medium supplemented with 1% FBS. ‘Complex trigger’ mix is added in a volume of 20 μL to obtain a final concentration of 12.5%. For that, ‘complex trigger’ mix, is diluted to 80% with M199 medium supplemented with 1% FBS. […]

Row | SMILES | IC50 (TAK1-TAB1 fusion protein) [nM] | EC50 [1] [nM]
1 | c1cn2c(-c3cn[nH]c3)ccc(Nc3ccc(N4CCOCC4)cc3)c2n1 [Compound 2, (4-Morpholin-4-yl-phenyl)-[5-(1H-pyrazol-4-yl)-imidazo[1,2-a]pyridin-8-yl]-amine] | 101 to 1000 | 101 to 1000
2 | CN1CCN(c2ccc(Nc3ccc(-c4ccc(C(N)=O)cc4)n4ccnc34)cc2)CC1 [Compound 3, 4-{8-[4-(4-Methyl-piperazin-1-yl)-phenylamino]-imidazo[1,2-a]pyridin-5-yl}-benzamide] | 101 to 1000 | < 100
3 | O=c1cc(-c2ccc(Nc3ccc(N4CCS(=O)(=O)CC4)cc3)c3nccn23)cc[nH]1 [Compound 112, 4-{8-[4-(1,1-Dioxo-1lambda*6*- thiomorpholin-4-yl)-phenylamino]-imidazo[1,2-a]pyridin-5-yl}-1H-pyridin-2-one] | > 3000 | –
4 | C[C@@H]1CN(c2ccc(Nc3ccc(-c4cc[nH]c(=O)c4)n4ccnc34)cc2)C[C@H](C)O1 [Compound 113, 4-{8-[4-((2R,6S)-2,6-Dimethyl-morpholin-4-yl)-phenylamino)-imidazo[1,2-a]pyridin-5-yl}-1H-pyridin-2-one] | 1000 to 3000 | –
5 | O=c1cc(-c2ccc(Nc3ccc(N4CCN5CCCCC5C4)cc3)c3nccn23)cc[nH]1 (stereo not shown) [Compound 114, 4-{8′-[4-(Octahydro-pyrido[1,2-a]pyrazin-2-yl)-phenylamino]-imidazo[1,2-a]pyridin-5-yl}-1H-pyridin-2-one] | 101 to 1000 | –
6 | O=c1cc(-c2ccc(Nc3ccc(N4CCC(F)CC4)cc3)c3nccn23)cc[nH]1 [Compound 116, 4-{8-[4-(4-Fluoro-piperidin-1-yl)-phenylamino]-imidazo[1,2-a]pyridin-5-yl}-1H-pyridin-2-one] | 1000 to 3000 | –
7 | O=c1cc(-c2ccc(Nc3ccc(N4CCC(F)(F)CC4)cc3)c3nccn23)cc[nH]1 [Compound 117, 4-{8-[4-(4,4-Difluoro-piperidin-1-yl)-phenylamino]-imidazo[1,2-a]pyridin-5-yl}-1H-pyridin-2-one] | > 3000 | –
8 | O=c1cc(-c2ccc(Nc3ccc(N4CCCC(F)(F)C4)cc3)c3nccn23)cc[nH]1 [Compound 118, 4-{8-[4-(3,3-Difluoro-piperidin-1-yl)-phenylamino]-imidazo[1,2a]pyridin-5-yl}-1H-pyridin-2-one] | > 3000 | –
9 | c1cn2c(-c3cn[nH]c3)ccc(Nc3ccc(N4CCC(N5CCCCC5)CC4)cc3)c2n1 [Compound 119, (4[1,4′]Bipiperidinyl-1′-yl-phenyl)-[5-(1H-pyrazol-4-yl)-imidazo[1,2-a]pyridin-8-yl]-amine] | 101 to 1000 | –
10 | CC1CCN(C2CCN(c3ccc(Nc4ccc(-c5cc[nH]c(=O)c5)n5ccnc45)cc3)CC2)CC1 [Compound 121, 4-{8-[4-(4-Methyl-[1,4′]bipiperidinyl-1′-yl)-phenylamino]-imidazo[1,2-a]pyridin-5-yl}-1H-pyridin-2-one] | 101 to 1000 | –
11 | CC1CCCN(C2CCN(c3ccc(Nc4ccc(-c5cc[nH]c(=O)c5)n5ccnc45)cc3)CC2)C1 (stereo not shown) [Compound 122, 4-{8-[4-(3-Methyl-[1,4′]bipiperidinyl-1′-yl)-phenylamino]-imidazo[1,2-a]pyridin-5-yl}-1H-pyridin-2-one] | 101 to 1000 | –

Results, then the compound that gave them:

Row | IC50 (TAK1-TAB1 fusion protein) [nM] | EC50 [1] [nM] | SMILES
12 | 1000 to 3000 | 101 to 1000 | NC(=O)c1ccc(-c2ccc(Nc3ccc(N4CCOCC4)cc3)c3nccn23)cc1 [Compound 1, 4-[8-(4-Morpholin-4-yl-phenylamino)-imidazo[1,2-a]pyridin-5-yl]-benzamide]
13 | 101 to 1000 | > 3000 | CN1CCN(c2ccc(Nc3ccc(-c4cn[nH]c4)n4ccnc34)cc2)CC1 [Compound 4, [4-(4-Methyl-piperazin-1-yl)-phenyl]-[5-(1H-pyrazol-4-yl)-imidazo[1,2-a]pyridin-8-yl]-amine]
14 | 101 to 1000 | 1000 to 3000 | CC(C)N1CCN(c2ccc(Nc3ccc(-c4cn[nH]c4)n4ccnc34)cc2F)CC1 [Compound 5, [3-Fluoro-4-(4-isopropyl-piperazin-1-yl)-phenyl]-[5-(1H-pyrazol-4-yl)-imidazo[1,2-a]pyridin-8-yl]-amine]
15 | 1000 to 3000 | – | O=c1cc(-c2ccc(Nc3ccc(N4CCCCC4)cc3)c3nccn23)cc[nH]1 [Compound 115, 4-[8-(4-Piperidin-1-yl-phenylamino)-imidazo[1,2-a]pyridin-5-yl]-1H-pyridin-2-one]
16 | 1000 to 3000 | – | O=c1cc(-c2ccc(Nc3ccc(N4CCC(N5CCC(O)CC5)CC4)cc3)c3nccn23)cc[nH]1 [Compound 123, 4-{8-[4-(4-Hydroxy-[1,4′]bipiperidinyl-1′-yl)-phenylamino]-imidazo[1,2-a]pyridin-5-yl}-1H-pyridin-2-one]
17 | > 3000 | – | O=c1cc(-c2ccc(Nc3ccc(N4CCCC4)c(Cl)c3)c3nccn23)cc[nH]1 [Compound 125, 4-[8-(3-Chloro-4-pyrrolidin-1-yl-phenylamino)-imidazo[1,2-a]pyridin-5-yl]-1H-pyridin-2-one]
